# Assay results reported in patent US5858995A, “Benzofuran derivatives useful as inhibitors of bone resorption” (Fujisawa Pharmaceutical Co., Ltd., priority 1994, dated 1999).
# Tested on: PTH-induced bone resorption (calvariae)
# Experiment: Bone organ culture: inhibition of PTH-induced bone resorption in rat calvariae
# Format: cell-based
# Details: Compound dose = 1 × 10^-5 (M); calvariae from Wistar rats, 10^-8 M human PTH (1-34); calcium in medium after six days
# Method: Test (Bone organ culture)
# Calvariae from Wistar rats were excised and cultured in wells of 12-well culture plates containing 2 ml of Dulbecco's modified minimum essential medium supplemented with 10% fetal bovine serum and 10^-8 M human parathyroid hormone fragment (1-34) [PTH] in the presence of the test compound. In control dishes, PTH was not added. Control and PTH control were exposed to an equivalent concentration of the vehicle. Six days later, the concentration of calcium in the medium was measured by methylxylenol blue method and the percentage of inhibition of PTH-induced bone resorption was calculated according to following formula. [formula] Test Result
smiles,measurement,value
"Cc1oc2c(NC(=O)c3c(Cl)cccc3Cl)cccc2c1C [Test Compound (1), 7-(2,6-Dichlorobenzoylamino)-2,3-dimethylbenzo[b]furan]",Inhibition (%) of PTH-induced bone resorption,100%
